Measurements published in patent US20090082203A1, “INSECTICIDAL BIS(SUBSTITUTED PHENYL)-1-{[4-(SATURATED HETEROCYCLYL-SUBSTITUTED)PHENYLMETHYL]- (4-PIPERIDYL)}METHANE DERIVATIVES” (priority 2004, published 2009).

Test system: tobacco budworm (Heliothis virescens [Fabricius])
Assay: surface-treated diet test against tobacco budworm
Type: in vivo
Conditions: 0.25 millimolar on the surface of the diet, second instar larvae, five-day exposure; for Percent Mortality: compared to the total number of insects infested; for Percent Growth Inhibition: inhibition of insect weight relative to untreated controls
Method: Candidate insecticides were evaluated for activity against the tobacco budworm (Heliothis virescens [Fabricius]) in a surface-treated diet test.
In this test one mL of molten (65-70° C.) wheat germ-based artificial diet was pipetted into each well of a four by six (24 well) multi-well plate (ID# 430345-15.5 mm dia.×17.6 mm deep; Corning Costar Corp., One Alewife Center, Cambridge, Mass. 02140). The diet was allowed to cool to ambient temperature before treatment with candidate insecticide.
For a determination of insecticidal activity, solutions of the candidate insecticides were prepared for testing using a Packard 204DT Multiprobe® Robotic System (Packard Instrument Company, 800 Research Parkway, Meriden, Conn. 06450), in which the robot first diluted a standard 50 millimolar DMSO solution of candidate insecticide with a 1:1 water/acetone solution (V/V) in a ratio of 1:7 stock solution to water/acetone. The robot subsequently pipetted 40 microliters of the so-prepared solution onto the surface of the diet in each of three wells in the 24 multi-well plate. The process was repeated with solutions of seven other candidate insecticides. Once treated, the contents of the multi-well plate were allowed to dry, leaving 0.25 millimoles of candidate insecticide on the surface of the diet, or a concentration of 0.25 millimolar. Appropriate untreated controls containing only DMSO on the diet surface were also included in this test.
For evaluations of the insecticidal activity of a candidate insecticide at varying rates of application, the test was established as described above using sub-multiples of the standard 50 millimolar DMSO solution of candidate insecticide. For example, the standard 50 millimolar solution was diluted by the robot with DMSO to give 5, 0.5, 0.05, 0.005, 0.0005 millimolar, or more dilute solutions of the candidate insecticide. In these evaluations there were six replicates of each rate of application placed on the surface of the diet in the 24 multi-well plate, for a total of four rates of application of candidate insecticide in each plate.
In each well of the test plate was placed one second instar tobacco budworm larvae, each weighing approximately five milligrams. After the larvae were placed in each well, the plate was sealed with clear polyfilm adhesive tape. The tape over each well was perforated to ensure an adequate air supply. The plates were then held in a growth chamber at 25° C. and 60% relative humidity for five days (light 14 hours/day).
After the five-day exposure period insecticidal activity for each rate of application of candidate insecticide was assessed as percent inhibition of insect weight relative to the weight of insects from untreated controls, and percent mortality when compared to the total number of insects infested.
The test compounds of formula I are identified by numbers that correspond to those in Table 1.

| Compound | Percent Mortality [%] | Percent Growth Inhibition [%] |
| --- | --- | --- |
| CC1CCOC(c2ccc(C[N+]3([O-])CCC(C(O)(c4ccc(OC(F)(F)F)cc4)c4ccc(OC(F)(F)F)cc4)CC3)cc2)O1 (stereo not shown) [Compound 68] | 100 | 100 |
| CC1(C)CCOC(c2ccc(CN3CCC(C(O)(c4ccc(OC(F)(F)F)cc4)c4ccc(OC(F)(F)F)cc4)CC3)cc2)O1 (stereo not shown) [Compound 69] | 100 | 100 |
| CC1(C)CCOC(c2ccc(C[N+]3([O-])CCC(C(O)(c4ccc(OC(F)(F)F)cc4)c4ccc(OC(F)(F)F)cc4)CC3)cc2)O1 (stereo not shown) [Compound 70] | 100 | 100 |
| CC(=O)N1CCSC1c1ccc(CN2CCC(C(O)(c3ccc(OC(F)(F)F)cc3)c3ccc(OC(F)(F)F)cc3)CC2)cc1 (stereo not shown) [Compound 71] | 33 | 100 |
| CCCC1COC(c2ccc(CN3CCC(C(O)(c4ccc(OC(F)(F)F)cc4)c4ccc(OC(F)(F)F)cc4)CC3)cc2)O1 (stereo not shown) [Compound 72] | 100 | 100 |
| CN(C)C(=O)N1CCSC1c1ccc(CN2CCC(C(O)(c3ccc(OC(F)(F)F)cc3)c3ccc(OC(F)(F)F)cc3)CC2)cc1 (stereo not shown) [Compound 73] | 100 | 100 |
| CCCC1COC(c2ccc(C[N+]3([O-])CCC(C(O)(c4ccc(OC(F)(F)F)cc4)c4ccc(OC(F)(F)F)cc4)CC3)cc2)O1 (stereo not shown) [Compound 74] | 100 | 100 |
| CC1(C)OCC(c2ccc(CN3CCC(C(O)(c4ccc(OC(F)(F)F)cc4)c4ccc(OC(F)(F)F)cc4)CC3)cc2)O1 (stereo not shown) [Compound 76] | 100 | 100 |
| CC1(C)OCC(c2ccc(C[N+]3([O-])CCC(C(O)(c4ccc(OC(F)(F)F)cc4)c4ccc(OC(F)(F)F)cc4)CC3)cc2)O1 (stereo not shown) [Compound 77] | 100 | 100 |
| CC1CC(C)(C)OC(c2ccc(CN3CCC(C(O)(c4ccc(OC(F)(F)F)cc4)c4ccc(OC(F)(F)F)cc4)CC3)cc2)O1 (stereo not shown) [Compound 78] | 100 | 100 |
| [O-][N+]1(Cc2ccc(C3OCCC(c4ccccc4)O3)cc2)CCC(C(O)(c2ccc(OC(F)(F)F)cc2)c2ccc(OC(F)(F)F)cc2)CC1 (stereo not shown) [Compound 79] | 100 | 100 |
| CC1CC(C)(C)OC(c2ccc(C[N+]3([O-])CCC(C(O)(c4ccc(OC(F)(F)F)cc4)c4ccc(OC(F)(F)F)cc4)CC3)cc2)O1 (stereo not shown) [Compound 80] | 100 | 100 |
| OC(c1ccc(OC(F)(F)F)cc1)(c1ccc(OC(F)(F)F)cc1)C1CCN(Cc2ccc(C3(c4ccc(Cl)nc4)OCCO3)cc2)CC1 [Compound 83] | 0 | 31 |
| OC(c1ccc(OC(F)(F)F)cc1)(c1ccc(OC(F)(F)F)cc1)C1CCN(Cc2ccc(C3(c4cccc(Cl)c4)OCCO3)cc2)CC1 [Compound 85] | 100 | 100 |
| C=CC1COC(c2ccc(C[N+]3([O-])CCC(C(O)(c4ccc(OC(F)(F)F)cc4)c4ccc(OC(F)(F)F)cc4)CC3)cc2)O1 (stereo not shown) [Compound 86] | 100 | 100 |
| [O-][N+]1(Cc2ccc(C3(c4ccc(Cl)nc4)OCCO3)cc2)CCC(C(O)(c2ccc(OC(F)(F)F)cc2)c2ccc(OC(F)(F)F)cc2)CC1 (stereo not shown) [Compound 87] | 17 | 79 |
| COC(=O)N1CCSC1c1ccc(CN2CCC(C(O)(c3ccc(OC(F)(F)F)cc3)c3ccc(OC(F)(F)F)cc3)CC2)cc1 (stereo not shown) [Compound 89] | 100 | 100 |
| CN1CCOC1c1ccc(CN2CCC(C(O)(c3ccc(OC(F)(F)F)cc3)c3ccc(OC(F)(F)F)cc3)CC2)cc1 (stereo not shown) [Compound 90] | 100 | 100 |
| C=CCOCC1COC(c2ccc(CN3CCC(C(O)(c4ccc(OC(F)(F)F)cc4)c4ccc(OC(F)(F)F)cc4)CC3)cc2)O1 (stereo not shown) [Compound 91] | 100 | 100 |

| Compound | Percent Mortality [%] | Percent Growth Inhibition [%] |
| --- | --- | --- |
| OC(c1ccc(OC(F)(F)F)cc1)(c1ccc(OC(F)(F)F)cc1)C1CCN(Cc2ccc(C3OCC(COc4ccccc4)O3)cc2)CC1 (stereo not shown) [Compound 92] | 100 | 100 |
| C=CCOCC1COC(c2ccc(C[N+]3([O-])CCC(C(O)(c4ccc(OC(F)(F)F)cc4)c4ccc(OC(F)(F)F)cc4)CC3)cc2)O1 (stereo not shown) [Compound 93] | 100 | 100 |
| [O-][N+]1(Cc2ccc(C3OCC(COc4ccccc4)O3)cc2)CCC(C(O)(c2ccc(OC(F)(F)F)cc2)c2ccc(OC(F)(F)F)cc2)CC1 (stereo not shown) [Compound 94] | 100 | 100 |
| O=C(NCC1COC(c2ccc(CN3CCC(C(O)(c4ccc(OC(F)(F)F)cc4)c4ccc(OC(F)(F)F)cc4)CC3)cc2)O1)OCc1ccccc1 (stereo not shown) [Compound 95] | 100 | 100 |
| CC(C)N1CCOC1c1ccc(CN2CCC(C(O)(c3ccc(OC(F)(F)F)cc3)c3ccc(OC(F)(F)F)cc3)CC2)cc1 (stereo not shown) [Compound 97] | 50 | 100 |
| CCCCN1CCOC1c1ccc(CN2CCC(C(O)(c3ccc(OC(F)(F)F)cc3)c3ccc(OC(F)(F)F)cc3)CC2)cc1 (stereo not shown) [Compound 98] | 100 | 100 |
| OC(c1ccc(OC(F)(F)F)cc1)(c1ccc(OC(F)(F)F)cc1)C1CCN(Cc2ccc(C3(c4ccoc4)OCCO3)cc2)CC1 [Compound 99] | 100 | 100 |
| [O-][N+]1(Cc2ccc(C3(c4ccoc4)OCCO3)cc2)CCC(C(O)(c2ccc(OC(F)(F)F)cc2)c2ccc(OC(F)(F)F)cc2)CC1 (stereo not shown) [Compound 101] | 100 | 100 |
| OC(c1ccc(OC(F)(F)F)cc1)(c1ccc(OC(F)(F)F)cc1)C1CCN(Cc2ccc(C3COCO3)cc2)CC1 (stereo not shown) [Compound 103] | 100 | 100 |
| [O-][N+]1(Cc2ccc(C3COCO3)cc2)CCC(C(O)(c2ccc(OC(F)(F)F)cc2)c2ccc(OC(F)(F)F)cc2)CC1 (stereo not shown) [Compound 104] | 100 | 100 |
| [O-][N+]1(Cc2ccc(C3OCC4OC4CO3)cc2)CCC(C(O)(c2ccc(OC(F)(F)F)cc2)c2ccc(OC(F)(F)F)cc2)CC1 (stereo not shown) [Compound 105] | 100 | 100 |
| NC1(CO)COC(c2ccc(CN3CCC(C(O)(c4ccc(OC(F)(F)F)cc4)c4ccc(OC(F)(F)F)cc4)CC3)cc2)OC1 (stereo not shown) [Compound 107] | 100 | 100 |
| OC(c1ccc(OC(F)(F)F)cc1)(c1ccc(OC(F)(F)F)cc1)C1CCN(Cc2ccc(C3OCC(CN4CCCC4)O3)cc2)CC1 (stereo not shown) [Compound 108] | 33 | 97 |
| [O-][N+]1(Cc2ccc(C3OCC(CN4CCCC4)O3)cc2)CCC(C(O)(c2ccc(OC(F)(F)F)cc2)c2ccc(OC(F)(F)F)cc2)CC1 (stereo not shown) [Compound 110] | 100 | 100 |
| CC1(C)COC(c2ccc(CN3CCC(C(O)(c4ccc(OC(F)(F)F)cc4)c4ccc(OC(F)(F)F)cc4)CC3)cc2)O1 (stereo not shown) [Compound 111] | 100 | 100 |
| CC1(C)COC(c2ccc(C[N+]3([O-])CCC(C(O)(c4ccc(OC(F)(F)F)cc4)c4ccc(OC(F)(F)F)cc4)CC3)cc2)O1 (stereo not shown) [Compound 112] | 100 | 100 |
| OC(c1ccc(OC(F)(F)F)cc1)(c1ccc(OC(F)(F)F)cc1)C1CCN(Cc2ccc(C3O[C@H]4CCCC[C@H]4O3)cc2)CC1 (stereo partly shown) [Compound 115] | 100 | 100 |
| OC(c1ccc(OC(F)(F)F)cc1)(c1ccc(OC(F)(F)F)cc1)C1CCN(Cc2ccc(C3O[C@H]4COC[C@H]4O3)cc2)CC1 (stereo partly shown) [Compound 116] | 100 | 100 |
| [O-][N+]1(Cc2ccc(C3O[C@H]4CCCC[C@H]4O3)cc2)CCC(C(O)(c2ccc(OC(F)(F)F)cc2)c2ccc(OC(F)(F)F)cc2)CC1 (stereo partly shown) [Compound 117] | 100 | 100 |
